Two substances from article PMC8708875 (Pharmaceutics, 2021) can be followed below.

What all share (type): cell-based, mouse
The test system of experiment [1] is epididymal adipose tissue explants. As to the kind of experiment: Glucose uptake in epididymal adipose tissue explants. The note with it: Ric4 100 µM, insulin 100 nM; 3H-deoxyglucose 1 µCi/mL, Krebs-Ringer bicarbonate buffer, 37 °C. As to the method:
Glucose uptake was evaluated in adipose tissue explants from mice bearing or not deletion of insulin receptor in adipocytes essentially as previously described. Briefly, explants of epididymal adipose tissue (20–25 mg) were incubated in 1 mL of Krebs–Ringer bicarbonate buffer (in mmol/L): 118 NaCl, 4.8 KCl, 1.25 CaCl2, 1.2 KH2PO4, 1.2 MgSO4, 25 NaHCO3, and 5.5 glucose and 1 μCi/mL of ^3H-deoxyglucose (New England Radiochemicals, Boston, MA, USA) supplemented with 2% fatty acid-free BSA (Sigma, Oakville, ON, Canada), 7.4. Vials were incubated at 37 °C for […] in the presence or absence of insulin (100 nM) or Ric4 peptide (100 µM). After 30 min, explants were extensively washed and processed to evaluate the uptake of ^3H deoxyglucose as previously described.
Figure 4 Glucose uptake and GLUT4 translocation induced by Ric4 in C2C12 cells. C2C12 cells were previously incubated in serum-free and glucose-free DMEM medium, then incubated with HEPES buffer for 30 min and then incubated for a further 30 min in glucose-uptake buffer containing vehicle, Ric4 (100 µM), or insulin (100 nM) in the presence of ^3H-glucose (1 µCi/mL) or 2-NBDG (80 µM). After incubations cells were lysed with 50 μL of 0.1 N NaOH and fluorescence or radiation of aliquots from the lysate were measured (A). Epididymal adipose tissue explants (20–25 mg) were incubated in Krebs–Ringer bicarbonate buffer containing glucose 5.5 mM and 1 μCi/mL of ^3H-deoxyglucose supplemented with 2% fatty acid-free for 30 min at 37 °C in the presence or absence of insulin (100 nM) or Ric4 (100 µM). The explants were processed to evaluate the uptake of ^3H-deoxyglucose (B). Myotubes were previously incubated in serum-free and glucose-free DMEM medium and then treated with control vehicle PBS or Ric4 (100 µM) for 30 min. Proteins from subcellular fractions: N/ER (C), microsomal (D), plasma membrane (E), were isolated and the expression Glut4 was analyzed by Western blot. Images were quantified using ImageJ 1.49 software. The statistical comparisons were performed using analysis of variance (ANOVA), followed by ad-hoc Tukey’s test using GraphPad Prism software * p < 0.05; # p < 0.05; **** p < 0.0001.

The test system of experiment [2] is Erk 1/2 phosphorylation (pErk). As to the kind of experiment: Erk phosphorylation by Western blotting in differentiated C2C12 cells. The conditions noted are these: peptides 100 µM, insulin 100 nM, Western blot, three independent experiments. As to the method:
C2C12 cells were used as a well-described model of skeletal muscle to evaluate the effect of peptides in gene expression, cell signaling, and glucose uptake. These cells were kindly provided by Prof. Patricia Brum, School of Physical Education and Prof. Anselmo Moriscot, Biomedical Science Institute, University of São Paulo, São Paulo, Brazil. C2C12 cells were cultured and maintained in high glucose Dulbecco’s modified Eagle’s medium (DMEM; Thermo Fisher Scientific, São Paulo, SP, Brazil) supplemented with 10% fetal bovine serum (FBS), 100 U/mL penicillin, and […] streptomycin in a humidified atmosphere of 5% CO2 at 37 °C. The cells were used in low pass (between passages 2 and 4) for all experiments to maintain the potential for differentiation of cultures. […]
Western blotting experiments were performed to evaluate the expression levels of specific proteins. […] Western blot bands were visualized with Super-Signal West Pico Chemiluminescent substrate (Thermo Scientific) using the ChemiDoc™ MP Imaging System (BioRad, Hercules, CA, USA), and quantified using ImageJ 1.49 software. All results are expressed as the means ± standard error of the mean (SEM). […] Data were statistically analyzed with GraphPad Prism software (GraphPad Software Inc, San Diego, CA, USA). […]

Experiment [3] concerns differentiated C2C12 myotubes. Briefly: qPCR gene expression in differentiated C2C12 myotubes. The note with it: Ric peptides 100 µM, insulin positive control, qPCR normalised to GAPDH, control = 1, mean ± SEM. In general terms: In qPCR the cycle at which signal appears reflects the starting amount.

Regarding Insulin, in experiment [1], the “glucose uptake in adipose tissue explants from C57BL6N WT mice” value is “stimulate glucose uptake” and the “glucose uptake in adipose tissue explants from conditional knockout mice depleted from insulin receptor” value is listed as “neither insulin nor Ric4 were capable of inducing glucose uptake”. Moreover, the “phosphorylation of Erk (pErk over total Erk)” value in experiment [2] was “increased”. For the same substance, in experiment [3], the “relative expression of Myosin, light chain 1 (MYL1)” value was 6.18 ± 1.07.

For the substance “LASVSTVLTSKYR [Ric4, intracellular peptide derived from hemoglobin alpha subunit, last 13 C-terminal amino acids]”, in experiment [1], the “glucose uptake in adipose tissue explants from C57BL6N WT mice” value is on record as “stimulate glucose uptake” and the “glucose uptake in adipose tissue explants from conditional knockout mice depleted from insulin receptor” value is given as “neither insulin nor Ric4 were capable of inducing glucose uptake”. For the same substance, the “phosphorylation of Erk (pErk over total Erk)” value in experiment [2] was “activated”. Further, the “relative expression of Myosin, light chain 1 (MYL1)” value in experiment [3] was 3.58 ± 1.07.
